Data taken from ChEMBL document CHEMBL5712086, “Spatially clustered loci with multiple enhancers are frequent targets of HIV-1 integration” (Nat Commun, 2019).
Active and inactive are the calls of the source. No cut-off for these calls is given here.

How the values were obtained:
CD4+ T cell [1] = assay: Effect on HIV-1 insertion biases in human CD+ T cells assessed as insertion rate per chromosome at 500 nM incubated for 6 hrs; assay type: functional, cell-based; conditions: Human immunodeficiency virus 1
CD4+ T cell [2] = assay: Effect on spatial localization of recurrent integration genes of HIV-1 in human CD+ T cells at 500 nM incubated for 6 hrs followed by infection for 72 hrs by 3D immuno-DNA FISH assay; assay type: functional, cell-based; conditions: Human immunodeficiency virus 1, time 78.0 hrs
CD4+ T cell [3] = assay: Effect on spatial localization of HIV-1 in human CD+ T cells at 500 nM incubated for 6 hrs followed by infection for 72 hrs by 3D immuno-DNA FISH assay; assay type: functional, cell-based; conditions: Human immunodeficiency virus 1, time 78.0 hrs
CD4+ T cell [4] = assay: Upregulation of protein-coding genes proximal to super enhancers in activated human CD+ T cells at 500 nM incubated for 6 hrs by transcriptional profiling relative to coding genes without SE; assay type: functional, cell-based
CD4+ T cell [5] = assay: Down regulation of protein-coding genes proximal to super enhancers in activated human CD+ T cells at 500 nM incubated for 6 hrs by transcriptional profiling relative to coding genes without SE; assay type: functional, cell-based
[6] = target: T1, Bromodomain and extra-terminal motif (BET) (Homo sapiens) (UniProt P25440+O60885+Q58F21+Q15059); conditions: CD4+ T cell, dose 500.0 nM, time 20.0 hrs
[7] = target: T1, Bromodomain and extra-terminal motif (BET) (Homo sapiens); conditions: CD4+ T cell, dose 500.0 nM, time 20.0 hrs; remark: listed apart in the source

With `Cc1sc2c(c1C)C(c1ccc(Cl)cc1)=N[C@@H](CC(=O)OC(C)(C)C)c1nnc(C)n1-2` the Activity (CD4+ T cell [1]) was “inactive”, the Activity (CD4+ T cell [2]) was “inactive” and the Activity (CD4+ T cell [3]) was “inactive”. The Activity (CD4+ T cell [4]) was “Active”, the Activity (CD4+ T cell [5]) was “Active” and the inhibition [6] was “Active”. The inhibition [7] was “Active”.
